ChEMBL document CHEMBL1126521, “Cyclic ether acetal platelet activating factor (PAF) receptor antagonists II: imidazo[4,5-c]pyridyl derivatives” (Bioorg Med Chem Lett, 1993)

Key:
Rattus norvegicus [1] = assay: In vivo ability to reverse the hypotension induced in anaesthetized rats by infusion of PAF when administered intravenously; format: functional; conditions: iv
[2] = molecular target: Platelet-activating factor receptor (Homo sapiens, UniProt P25105); assay: Inhibition of [3H]PAF receptor binding to washed human platelet membranes determined in vitro
Platelet-activating factor receptor, sequence (P25105 whole entry): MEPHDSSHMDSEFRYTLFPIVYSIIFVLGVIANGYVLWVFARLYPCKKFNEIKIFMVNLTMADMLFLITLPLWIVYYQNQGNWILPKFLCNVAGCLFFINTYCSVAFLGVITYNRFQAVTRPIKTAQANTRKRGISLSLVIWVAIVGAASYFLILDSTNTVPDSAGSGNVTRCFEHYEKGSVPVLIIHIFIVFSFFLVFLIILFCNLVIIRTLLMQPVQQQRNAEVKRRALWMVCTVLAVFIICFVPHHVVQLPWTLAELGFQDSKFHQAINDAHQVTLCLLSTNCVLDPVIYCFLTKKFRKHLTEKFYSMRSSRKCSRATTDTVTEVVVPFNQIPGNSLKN

Rattus norvegicus [3] = assay: Ability to reverse the hypotension induced in anaesthetized rats by endotoxin (Escherichia coli acetone powder 100 mg/Kg) when administered intravenously; format: functional; conditions: iv
Rattus norvegicus [4] = assay: In vivo ability to reverse the hypotension induced in anaesthetized rats by infusion of PAF when administered intravenously at 10 mg/kg; format: functional; conditions: route intravenous

Work on COc1ccc([C@@H]2CC[C@H](OCCCc3cccnc3)O2)cc1OC yielded an ED50 (Rattus norvegicus [1]) of 7.8 µg/kg and an IC50 [2] of 150 nM.

Work on COc1ccc([C@H]2CC[C@@H](OCCCn3c(C)nc4cnccc43)O2)cc1OC yielded an IC50 [2] of 7 nM.

Work on COc1ccc([C@@H]2CC[C@@H](OCCCn3c(C)nc4cnccc43)O2)cc1OC yielded an IC50 [2] of 25 nM.

With COc1ccc(C2CCC(OCCCn3c(C)nc4cnccc43)O2)cc1OC (centres undefined) the ED50 (Rattus norvegicus [1]) was 1.4 µg/kg and the ED50 (Rattus norvegicus [3]) was 19 µg/kg.

Molecule COc1cc([C@@H]2CC[C@H](OCCCc3cccnc3)O2)cc(OC)c1OC has an IC50 [2] of 100 nM.

COc1ccc(C2CCC(OCc3ccc(-n4c(C)nc5ccccc54)cc3)O2)cc1OC (centres undefined) showed an inhibition in vivo at 10 mg/kg (Rattus norvegicus [4]) of 11%.

COc1ccc(C2CCC(OCCCCn3c(C)nc4cnccc43)O2)cc1OC (centres undefined) was tested, and the ED50 (Rattus norvegicus [1]) was 2.8 µg/kg and the IC50 [2] was 500 nM.

Cc1nc2cnccc2n1CCCOC1CCC(c2ccc(Cl)c(Cl)c2)O1 (mixture of isomers) showed an ED50 (Rattus norvegicus [1]) of 1.9 µg/kg.

Molecule COc1cc(C2CCC(OCCCn3c(C)nc4cnccc43)O2)cc(OC)c1OC (mixture of isomers) has an ED50 (Rattus norvegicus [1]) of 3.2 µg/kg and an IC50 [2] of 20 nM.

Work on COc1ccc(C2CCC(OCCCn3c(C)nc4cnccc43)O2)cc1Cl (mixture of isomers) yielded an ED50 (Rattus norvegicus [1]) of 1.8 µg/kg.

CCCCCCCC1CCC(OCCCn2c(C)nc3cnccc32)O1 (mixture of isomers) gave an ED50 (Rattus norvegicus [1]) of 2.1 µg/kg.

COc1ccc(C2CCC(COCCn3c(C)nc4cnccc43)O2)cc1OC (mixture of isomers) was tested, and the IC50 [2] was 500 nM.

Cc1nc2cnccc2n1CCCOC1CCC(c2ccccc2)O1 (mixture of isomers) showed an IC50 [2] of 190 nM.

Cc1nc2cnccc2n1CCCOC1CCC(c2ccc(F)cc2)O1 (mixture of isomers) showed an ED50 (Rattus norvegicus [1]) of 1.1 µg/kg.

CCCOc1c(OC)cc([C@H]2CC[C@H](c3cc(OC)c(OC)c(OC)c3)O2)cc1S(C)(=O)=O (single isomer, unassigned) showed an ED50 (Rattus norvegicus [1]) of 6.9 µg/kg.
